Measurements reported in patent US11911407B2, “Therapies for cardiomyopathy” (UNIVERSITY COLLEGE DUBLIN, NATIONAL UNIVERSITY OF IRELAND, priority 2013, dated 2024).
Entries after “also recorded” stand apart in the source; their conditions may differ.

Experiments:
[1] = test system: HCF cells; experiment: DNA demethylation with 5-aza-2′-deoxycytidine in hypoxic HCF cells, pro-fibrotic protein expression; assay type: cell-based, human; settings: for expression of ASMA / expression of collagen 1 / expression of collagen 3: hypoxic fibroblasts with TGFβ; for expression of ASMA / expression of collagen 1 / expression of collagen 3 / pro-fibrotic effects of / responses to TGFβ: 1-5 μM; for pro-fibrotic effects of / responses to TGFβ: hypoxic fibroblasts, up to eight days
Protocol: Where indicated, HCF cells were exposed to a 1% oxygen environment for up to 8 days using a hypoxic chamber (Coy Laboratories). The effects of 10 ng/ml recombinant TGFβ1 treatment (R&D Systems) under these conditions were investigated. When required, cells were treated for 24 hours with 1 mM of the prolyl hydroxylase inhibitor DMOG (Sigma) to simulate hypoxia through the induction of HIF under normoxic conditions. Whole cell protein lysates were generated using RIPA Lysis Buffer (Millipore), containing a protease inhibitor cocktail (Roche). Nuclear protein extracts were obtained using the Ne-PeR Nuclear and Cytoplasmic extraction Reagents, according to manufacturer's instructions (Pierce Biotechnology). Protein concentrations were determined using the BCA Protein Assay Kit (Pierce). 10-20 μg of protein lysates were denatured, reduced and resolved on SDS-polyacrylamide gels by SDS-PAGE before transfer onto 0.45 μm pore size Immobilon-P polyvinylidene fluoride (PVDF) membranes (Millipore). Membranes were incubated with blocking buffer (TBS, 0.25% Tween-20, 0.1% serum from species that secondary antibody was raised in, and 5% fat free skimmed milk) for 1 hour at room temperature. Membranes were subsequently probed overnight with either anti-ASMA (Sigma), anti-collagen 1, anti-DNMT3B (Imgenex), or anti-hypoxia inducible factor 1α (HIF-1α) (Novus Biologicals). Detection of the specific binding of the primary antibody was achieved using HRP-conjugated secondary antibodies, followed by signal detection with Immobilon Western chemiluminescent HRP substrate (Millipore) according to the manufacturer's instructions. Anti-alpha tubulin (Sigma) was used to verify equal loading. For demethylation analysis, cells were treated with 1-5 μM 5-aza-2′-deoxycytidine (5-azadc; Sigma) for up to eight days. The effect of global DNA methylation inhibition on pro-fibrotic protein expression was assessed using Western blotting.

[2] = test system: spontaneously hypertensive rats (SHR); experiment: Doppler echocardiography in rat model of hypertensive heart disease; assay type: in vivo; settings: SHR-5AZA vs SHR-V, 10 mg/kg i.p. alternate day, 12 weeks
Protocol: Approval from the local Animal Research Ethics Committee was sought and obtained to investigate the anti-fibrotic impact of 5-aza on cardiac function and fibrosis. Male spontaneously hypertensive rats (SHR) and their normotensive counterpart Wistar Kyote rats (WKY) were purchased from Charles River and utilised for the study. From 10 weeks of age, the animals received alternate day intra-peritoneal injection of either PBS (vehicle) or 5-aza (10 mg/kg) for 12 weeks. The 5-aza was purchased from Sigma, diluted in sterile PBS and filtered through a 0.22 μm filter. Aliquots were stored at −20° C. and were used within 5 days of reconstitution. The study design consisted of three groups of 10 animals; group 1 included 10 SHR rats who received 5-aza (SH R-5-aza); group 2 included 10 SHR rats who received PBS vehicle (SHR-V); group 3 included 10 WKY rats who received PBS vehicle (WKY-V). All rats were housed in the animal facility under identical conditions, with a 12 hour light-dark cycle. Cardiac structure and function was assessed at baseline and at the end of the study (12 weeks) using Echocardiography. During the procedure, the animals were under inhaled anaesthesia (isoflurane 2%) and body temperature was maintained using a heat mat. Echocardiography assessment was performed using a Vevo 770 High-Resolution In Vivo Micro-Imaging System (Visualsonics) with a […] transducer. M-mode and 2-dimensional (2D) images were obtained in the parasternal long- and short-axis views. The interventricular septal thickness, posterior wall thickness, and LV diameter were measured in systole and diastole at the tips of the papillary muscle. Measurements were taken over three consecutive cardiac cycles and averaged. Left ventricular mass (LVM) was calculated according to Devereux's formula and indexed to tibial length (LVMi). Blinded analysis was performed by two separate independent observers.

[3] = test system: spontaneously hypertensive rats (SHR); experiment: Hydroxyproline assay of total collagen in myocardium; assay type: in vivo, rat; settings: SHR-5AZA vs SHR-V, 12 weeks
Protocol: (§1) Approval from the local Animal Research Ethics Committee was sought and obtained to investigate the anti-fibrotic impact of 5-aza on cardiac function and fibrosis. Male spontaneously hypertensive rats (SHR) and their normotensive counterpart Wistar Kyote rats (WKY) were purchased from Charles River and utilised for the study. From 10 weeks of age, the animals received alternate day intra-peritoneal injection of either PBS (vehicle) or 5-aza (10 mg/kg) for 12 weeks. The 5-aza was purchased from Sigma, diluted in sterile PBS and filtered through a 0.22 μm filter. Aliquots were stored at −20° C. and were used within 5 days of reconstitution. The study design consisted of three groups of 10 animals; group 1 included 10 SHR rats who received 5-aza (SH R-5-aza); group 2 included 10 SHR rats who received PBS vehicle (SHR-V); group 3 included 10 WKY rats who received PBS vehicle (WKY-V). All rats were housed in the animal facility under identical conditions, with a 12 hour light-dark cycle.

[4] = test system: spontaneously hypertensive rats (SHR); experiment: Picrosirius red staining with automated digital quantification of perivascular collagen; assay type: in vivo, rat; settings: SHR-5AZA vs SHR-V, 12 weeks
Protocol: as §1, with “cycle. […]” for “cycle.”
The degree of collagen deposition was quantified by automated digital image analysis. […] A positive pixel count algorithm was used to automatically quantify the area occupied by the dark pink stain colours representing collagen within each scanned slide image. […] A collagen volume fraction was calculated based on the percent of dark pink collagen staining quantified within a tissue section.

[5] = test system: spontaneously hypertensive rats (SHR); experiment: Myocyte area digital analysis of haematoxylin and eosin stained cardiac tissue; assay type: in vivo, rat; settings: SHR-5AZA vs SHR-V
Protocol: FIG. 16 depicts the effect of 5AZA treatment on myocyte area in vivo. […] Male spontaneously hypertensive rats (SHR) and their normotensive counterpart Wistar Kyote rats (WKY) were purchased from Charles River and utilised for the study. From 10 weeks of age, the animals received alternate day intra-peritoneal injection of either PBS (vehicle) or 5-aza (10 mg/kg) for 12 weeks. The 5-aza was purchased from Sigma, diluted in sterile PBS and filtered through a 0.22 μm filter. Aliquots were stored at −20° C. and were used within 5 days of reconstitution. The study design consisted of three groups of 10 animals; group 1 included 10 SHR rats who received 5-aza (SH R-5-aza); group 2 included 10 SHR rats who received PBS vehicle (SHR-V); group 3 included 10 WKY rats who received PBS vehicle (WKY-V). All rats were housed in the animal facility under identical conditions, with a 12 hour light-dark cycle.

[6] = test system: spontaneously hypertensive rats (SHR); experiment: Cardiac tissue gene expression of MYBP-C and ACTA1 by quantitative real-time PCR; assay type: in vivo, rat
Protocol: FIGS. 17 and 18 depict the effect of 5AZA treatment on cardiac expression levels of MYBP-C and ACTA1. Gene expression levels of MYBP-C and ACTA1 were assessed using quantitative real-time PCR in the cardiac tissue of SHR-V and SHR-AZA. […] Results represent mean and standard error of the mean. * p<0.05, *** p<0.001.
as §1

[7] = test system: cardiac myoblast cells; experiment: Cardiac myoblast gene expression of MYBP-C and ACTA1 in vitro by real-time PCR; assay type: cell-based; settings: 4 day treatment
Protocol: Confirmation of the impact of DNA methylation inhibitors can up-regulate the expression levels of MYBP-C and ACTA1 was assessed in vitro using cardiac myoblast cells. Cells were grown in culture for 4 days either in the presence or absence of 5-azacytidine (5AZA) or 5-aza-2-deoxycytidine (5AZA_DC). Gene expression was quantified using real-time PCR.

[8] = test system: HCF cells; experiment: DMOG treatment of HCF cells in normoxia (Western blot); assay type: cell-based, human; settings: 1 mM DMOG, 24 hours
Protocol: Primary human cardiac fibroblast cells from the adult ventricle (HCF) were purchased from ScienCell Research Laboratories. Primary cells were derived from a single person. Until required for experiments, cells were cultured and maintained in Dulbecco's modified eagles medium (DMEM) (Gibco), supplemented with 10% Fetal Bovine Serum (Gibco) and penicillin-streptomycin antibiotics (Gibco) in a 5% CO2 humidified incubator kept at 37° C.
(§2) Where indicated, HCF cells were exposed to a 1% oxygen environment for up to 8 days using a hypoxic chamber (Coy Laboratories). The effects of 10 ng/ml recombinant TGFβ1 treatment (R&D Systems) under these conditions were investigated. When required, cells were treated for 24 hours with 1 mM of the prolyl hydroxylase inhibitor DMOG (Sigma) to simulate hypoxia through the induction of HIF under normoxic conditions.
Whole cell protein lysates were generated using RIPA Lysis Buffer (Millipore), containing a protease inhibitor cocktail (Roche). Nuclear protein extracts were obtained using the Ne-PeR Nuclear and Cytoplasmic extraction Reagents, according to manufacturer's instructions (Pierce Biotechnology). Protein concentrations were determined using the BCA Protein Assay Kit (Pierce). […]

[9] = test system: HCF cells; experiment: TGFβ1 treatment of HCF cells, quantitative real-time PCR; assay type: cell-based, human
Protocol: as §2
Gene expression changes were measured in HCF cells using QPCR as described in human cardiac tissue analysis methods section. RNA isolation from cells was achieved using NucleoSpin RNA II Kit (Macherey-Nagel). QPCR data was analysed using the delta delta CT method.

[10] = 10 ng/ml TGFβ1, 8 days hypoxia (1% oxygen)

Which results are given for Nc1ncn([C@@H]2O[C@H](CO)[C@@H](O)[C@H]2O)c(=O)n1 [5AZA, 5-azacytidine]?
pro-fibrotic impact of hypoxia ([1]; FIGS. 7A-7C): reverses; cardiac hypertrophy [2]: significant reduction; E prime (E′), diastolic dysfunction ([2]; 10 mg/kg): significantly approved; also recorded: significantly improved; Ejection fraction (EF) ([2]; 10 mg/kg): significantly increased; also recorded: significantly improved; interventricular septum diameter (in diastole) ([2]; 10 mg/kg): significant reduction; also recorded: reduced; left ventricular mass index (LVMi) ([2]; 10 mg/kg): significant reduction; also recorded: reduced; total collagen / collagen deposition within the myocardium (hydroxyproline) [3]: significant reduction; perivascular collagen [4]: significantly reduced; also recorded: significant decrease; myocyte area [5]: significantly smaller; also recorded: significant decrease; ACTA1 expression in cardiac tissue ([6]; SHR animals treated with 5AZA): significant increase; MYBP-C expression within the myocardium ([6]; SHR animals treated with 5AZA): significant increase; increase in ACTA1 gene expression in cardiac tissue ([6]; SHR-AZA vs SHR-V): 4 fold; increase in MYBP-C gene expression in cardiac tissue ([6]; SHR-AZA vs SHR-V): 4 fold; ACTA1 gene expression in cardiac myoblast cells [7]: significant increase; MYBP-C gene expression in cardiac myoblast cells [7]: significant increase

With Nc1ncn([C@H]2C[C@H](O)[C@@H](CO)O2)c(=O)n1 [5AZA_DC, 5-aza-2′-deoxycytidine] as the compound, how does the “expression of ASMA” value [1] read?
Its value is “reduced expression”.

What about the “expression of collagen 1” value [1] of the same compound?
The value was “reduced expression”.

And the “expression of collagen 3” value [1]?
The value was “reduced expression”.

What about the “expression of ASMA” value ([1]; listed as 5-aza2dC) of the same compound?
The value was “significantly reduced”.

What about the “expression of collagen 1” value ([1]; listed as 5-aza2dC) of the same compound?
The value was “significantly reduced”.

What about the “expression of collagen 3” value ([1]; listed as 5-aza2dC) of the same compound?
Its value is “significantly reduced”.

What about the “pro-fibrotic effects of / responses to TGFβ” value [1] of the same compound?
The value was “significantly reduced”.

What about the “pro-fibrotic effects of / responses to TGFβ” value ([1]; listed as 5-aza2dC) of the same compound?
Its value is “inhibited”.

And the “ACTA1 gene expression in cardiac myoblast cells” value [7]?
The value was “significant increase”.

And the “MYBP-C gene expression in cardiac myoblast cells” value [7]?
The value was “significant increase”.

What does the source list for COC(=O)CNC(=O)C(=O)OC [DMOG]?
expression of DNMT3B [8]: increased expression; nuclear HIF-1α protein expression [8]: stabilises

How did the ASMA gene expression ([9]; 10 ng/ml TGFβ1) turn out when “TGFβ1: human recombinant transforming growth factor beta 1, pro-fibrotic cytokine” was run?
The ASMA gene expression was “significantly increased”.

And the “collagen 1 gene expression” value ([9]; 10 ng/ml TGFβ1)?
The value was “significantly increased”.

And the ASMA gene expression [9, 10]?
The ASMA gene expression was “further enhanced”.

What about the “collagen 1 gene expression” value [9, 10] of the same compound?
The value was “further enhanced”.
